Values joined by “and” are separate entries in the source; they are usually repeats but may differ in a detail not shown here. Equal entries are not always repeated.
Legend:
PKG1β(h) = PKG1β(h) (Homo sapiens, UniProt Q13976); experiment: Kinase selectivity panel (residual activity at 1 μM); assay type: biochemical; details: inhibitor at 1 μM; read-out: residual kinase activity in % of maximal activity
JAK2(h) = JAK2(h) (Homo sapiens, UniProt O60674); experiment: as above; assay type: biochemical; details: inhibitor at 1 μM
[1] = molecular target: purified CaMKIIα binding to GST–GluN2B-c WT (Homo sapiens, UniProt Q9UQM7); experiment: CaMKII binding to immobilized GST–GluN2B-c in vitro; details: for bound CaMKIIα (immunoblot, relative): Ca2+/CaM
Experimental: CaMKII–GluN2B binding assays were done as described[9],[13],[25]. Briefly, GST–GluN2B-c tail (GST–2BC) was immobilized on anti-GST antibody-coated microtiter plates (Thermo Scientific), blocked for 30 min with 5% BSA and then overlaid with […] CaMKII (subunit concentration) in PIPES-buffered saline (pH 7.2) containing 2 mM Ca^2+, 1 μM CaM, 1 mM Mg^2+, 0.1% BSA and 0.1% Tween-20 for 20 min at room temperature. […] After extensive washes in buffer containing 1 mM EGTA, GST–2BC and bound CaMKII were eluted for 10 min in SDS loading buffer at 95 °C. Bound CaMKII was measured via immunoblot.

purified CaMKIIα = purified CaMKIIα (Rattus norvegicus, UniProt P11275); experiment: In vitro kinase reaction: CaMKIIα phosphorylation of GST–GluA1 S831; assay type: biochemical; details: 30 °C, 1 mM ATP, Ki from IC50 with Km ATP 33.3 μM, read-out: apparent inhibitor constant (Ki), pS831
Experimental: Data are presented as mean values ± s.e.m. a, Schematic of the AS283 inhibitor mechanism of action: ATP-competitive inhibition blocks enzymatic activity while mimicking the nucleotide binding requirement to allow interaction with GluN2B. b, Representative immunoblot and quantification of in vitro kinase reactions at 30 °C in 1 mM ATP measuring purified CaMKIIα phosphorylation of GST–GluA1 S831 with varying concentrations of AS283 (0.41–10 μM; n = 4 independent concentration curves). For a negative control (Neg.), ATP was omitted. […] ADP:AS283 P = 0.0697; ADP:tatCN21 P < 0.0001. ***P < 0.001. d, Confocal microscopy images of HEK293 cells co-expressing GFP–CaMKII and mCherry-2BC. […] CaMKII synaptic enrichment was measured before and after cLTP (n = 14,9 cells; RM two-way ANOVA with Šídák’s multiple comparisons test). […]
CaMKII-mediated phosphorylation of GluA1 S831 or GluN2B S1303 was measured by in vitro kinase reaction with a purified GST–GluA1 C-terminal tail or GST-GluN2B C-terminal tail. […] GST, phospho-S831, CaMKII, phospho-T286 or phospho-S1303 were detected in the samples by immunoblot analysis.
The inhibition constant Ki was calculated using the Cheng–Prusoff equation for competitive inhibition: Ki = IC50/(1 + [ATP]/Km).

[2] = test system: GFP–paCaMKII F89G in hippocampal neurons; experiment: paCaMKII F89G photoactivation: synaptic enrichment in hippocampal neurons; assay type: cell-based
Experimental: Neurons were wrapped in aluminium foil immediately following transfection and only exposed to red light in imaging. One image was then taken of each neuron to serve as a pre-photoactivation baseline. Immediately following this baseline image, paCaMKII was globally photoactivated with a 405 nm laser pulse (100 ms exposure, 75% laser power) once every 10 s for a total of 60 s. Neurons were then imaged 15 min after stimulation and assessed for CaMKII synaptic enrichment and dendritic spine growth.
Neuronal cultures were transfected on DIV 15–18 and imaged 24–48 h later. […] Two-dimensional maximum-intensity projection images were then generated and analysed using a custom-build programme in ImageJ. The programme utilizes combinatorial thresholding to mask regions of the cell that contain high-intensity puncta of postsynaptic density protein 95 (PSD95; a marker of the post-synaptic side of excitatory synapses in dendritic spines) and regions of the dendritic shaft that contain no fluorescence intensity of PSD95. As a measure of synaptic enrichment, the ratio of mean CaMKII fluorescence intensity of the PSD95 mask to the mean CaMKII fluorescence intensity in the dendritic shaft mask is measured. Spine growth was assessed by measuring the changes in mCherry cell fill fluorescence intensity within dendritic spine divided by the initial fluorescence intensity (F/F0).

Sequence of JAK2(h) (O60674 whole entry): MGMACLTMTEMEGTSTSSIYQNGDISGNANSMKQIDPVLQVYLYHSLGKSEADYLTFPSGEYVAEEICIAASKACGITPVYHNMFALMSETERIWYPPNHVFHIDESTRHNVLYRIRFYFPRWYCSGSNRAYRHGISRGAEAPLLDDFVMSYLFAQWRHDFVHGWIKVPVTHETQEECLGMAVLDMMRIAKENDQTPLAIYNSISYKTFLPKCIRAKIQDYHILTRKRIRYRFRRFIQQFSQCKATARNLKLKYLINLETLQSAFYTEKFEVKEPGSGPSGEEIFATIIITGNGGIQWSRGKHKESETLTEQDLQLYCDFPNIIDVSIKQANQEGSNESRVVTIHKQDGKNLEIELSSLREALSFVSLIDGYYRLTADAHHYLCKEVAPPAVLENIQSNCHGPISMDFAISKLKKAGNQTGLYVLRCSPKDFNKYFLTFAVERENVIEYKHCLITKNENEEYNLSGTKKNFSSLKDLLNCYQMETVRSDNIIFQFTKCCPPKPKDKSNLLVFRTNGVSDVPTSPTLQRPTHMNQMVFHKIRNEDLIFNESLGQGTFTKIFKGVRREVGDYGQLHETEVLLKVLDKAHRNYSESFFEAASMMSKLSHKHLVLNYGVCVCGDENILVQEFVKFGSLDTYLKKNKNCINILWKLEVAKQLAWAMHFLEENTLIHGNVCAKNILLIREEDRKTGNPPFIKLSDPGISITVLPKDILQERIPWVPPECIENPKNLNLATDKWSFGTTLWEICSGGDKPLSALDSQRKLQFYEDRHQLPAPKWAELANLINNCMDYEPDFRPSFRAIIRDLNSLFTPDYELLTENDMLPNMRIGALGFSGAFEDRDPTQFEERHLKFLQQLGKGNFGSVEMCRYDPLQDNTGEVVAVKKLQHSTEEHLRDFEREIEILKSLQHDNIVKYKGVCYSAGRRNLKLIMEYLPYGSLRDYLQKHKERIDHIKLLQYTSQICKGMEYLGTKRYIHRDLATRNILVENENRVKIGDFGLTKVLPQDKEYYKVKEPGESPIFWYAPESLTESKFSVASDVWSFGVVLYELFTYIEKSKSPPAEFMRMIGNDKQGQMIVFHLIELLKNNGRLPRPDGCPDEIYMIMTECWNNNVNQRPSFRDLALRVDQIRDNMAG
Sequence of PKG1β(h) (Q13976 1-686 isoform Q13976-2): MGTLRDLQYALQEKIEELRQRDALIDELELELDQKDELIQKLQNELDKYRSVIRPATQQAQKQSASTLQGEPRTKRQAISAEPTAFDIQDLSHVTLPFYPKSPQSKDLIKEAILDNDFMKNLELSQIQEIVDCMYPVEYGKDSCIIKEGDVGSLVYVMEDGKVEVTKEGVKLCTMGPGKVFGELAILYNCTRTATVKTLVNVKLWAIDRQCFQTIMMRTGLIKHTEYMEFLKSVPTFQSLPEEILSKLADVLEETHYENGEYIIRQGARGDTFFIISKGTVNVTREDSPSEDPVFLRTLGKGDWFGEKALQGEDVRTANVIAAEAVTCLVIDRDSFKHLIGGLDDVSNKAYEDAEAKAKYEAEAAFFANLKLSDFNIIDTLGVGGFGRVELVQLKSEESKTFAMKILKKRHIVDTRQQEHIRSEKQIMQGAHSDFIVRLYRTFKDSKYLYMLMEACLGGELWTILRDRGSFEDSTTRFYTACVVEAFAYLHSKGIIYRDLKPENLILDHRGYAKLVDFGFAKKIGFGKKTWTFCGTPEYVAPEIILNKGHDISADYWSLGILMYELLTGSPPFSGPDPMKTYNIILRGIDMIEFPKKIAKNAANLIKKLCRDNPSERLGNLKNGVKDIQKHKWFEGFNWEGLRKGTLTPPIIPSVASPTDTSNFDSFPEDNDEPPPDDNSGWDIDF

| Structure (SMILES) | remaining activity at 1 µM (PKG1β(h)) [%] | residual kinase activity in % of maximal activity (JAK2(h)) [%] | effect on CaMKII binding to GluN2B in vitro ([1]; 10 μM AS283 in the presence of ADP) | Ca2+/CaM-induced CaMKII binding when ATP was substituted with AS283 ([1]; AS283 versus ATP) | bound CaMKIIα (immunoblot, relative) ([1]; 10 μM AS283, no nucleotide, GST–GluN2B-c WT) | bound CaMKIIα (immunoblot, relative) ([1]; 1 mM ADP with 10 μM AS283) | Ki (purified CaMKIIα) [nM] | CaMKII movement after photoactivation of paCaMKII F89G ([2]; NM-PP1 10 μM) | synaptic enrichment after photoactivation (sheet 6e) ([2]; paCaMKII F89G + NM-PP1, individual neurons) |
| --- | --- | --- | --- | --- | --- | --- | --- | --- | --- |
| NCCNc1cccc(-c2ccnc3[nH]c4ccccc4c23)c1 [AS283] | 38 | 121 | did not inhibit | significantly enhanced | 7.5135 and 8.574 and 8.878 and 7.419 | 1.196 and 1.2737 and 1.086 and 1.094 | 17 | – | – |
| CC(C)(C)n1nc(Cc2cccc3ccccc23)c2c(N)ncnc21 [NM-PP1] | – | – | – | – | – | – | – | enabled similar movement | 1.231 and 1.446 and 1.136 and 1.385 and 1.127 and 1.67 and 1.6203 and 1.284 and 0.7763 and 1.224 and 1.168 and 1.296 and 1.013 and 0.919 and 1.131 and 1.135 and 1.776 |
